Converted amounts (≈) assume the structure as drawn. “Also recorded” adds a separate entry of the source.
Experiments:
live bait worms [1] = experiment: Coloring and viability of live bait worms kept in peat loam medium mixed with colorant (8 oz cup, 12 worms); assay type: in vivo; conditions: for Effectiveness as worm coloring agent (coloration of worms) / Worm viability / mortality: powdered colorant in peat loam, 8 oz cup, inspected at 24 hrs, 36 hrs, 3-4 weeks
Text: The inventor conducted numerous experiments to determine the effectiveness of a number of color additives to color live bait worms.
Experimental procedure. Each powdered colorant was mixed with peat loam medium and added to an 8 oz cup containing 12 healthy and natural worms. Concentrations given as mg colorant per 8 oz cup containing about 120 g peat loam. Worms were inspected for color and viability 24 hrs., 36 hrs., and when still viable, 3-4 weeks later.

[2] = Solubility of colorant in water; conditions: at 25° C.
live bait worms [3] = experiment: Incubation and storage of worms in bait cup topped with coloring medium; assay type: in vivo; conditions: 8-24 worms, 8 to 12 ounce cup, coloring medium 5 g colorant per kg, stored at 34° F. to 38° F.
Method: Alternatively, after the incubation, the above bulk colored worms can be divided into smaller amounts and stored in actual point-of-sale containers ready for use as bait by the end user rather than in bulk containers. For example, 8-24 of the worms previously colored in bulk as described above can be added to a normal 8 to 12 ounce Styrofoam, paper, or plastic bait cup and topped with the coloring medium (containing 5 g colorant D&C Yellow 8 per kg of the storage medium). When the container is capped with a lid and stored at 34° F. to 38° F., the worms will remain viable, and colored for about four to six weeks and are ready for immediate use as bait.
In another application of the process, the incubation and storage can be carried out in the same vessel. […]. In this case, the regular, uncolored, worms require an initial incubation period of about one week to lapsed before the worms acquire the desired color and intensity to be used as colored bait worms. The worms will then remain colored and viable in the bait cup of about four to six weeks. In both examples, the worms can be kept viable and colored indefinitely, if required, simply by changing the coloring medium once it has been consumed.

[4] = mg colorant per 8 oz cup containing about 120 g peat loam, 12 worms
[5] = 12 worms, listed as D&C Yellow No. 8

Row | Structure (SMILES) | Effectiveness as worm coloring agent (coloration of worms) (live bait worms [1]; 12 worms) | Worm viability / mortality (live bait worms [1]; 12 worms) | Solubility in water [2] | further results
1 | O=C(O)c1nn(-c2ccc(S(=O)(=O)O)cc2)c(O)c1N=Nc1ccc(S(=O)(=O)O)cc1 [FD & C Yellow 5] | Color not retained. | Worms remain viable | 20 mg/mL (≈ 42.7 mM) | 
2 | CCN(Cc1cccc(S(=O)(=O)[O-])c1)c1ccc(C(=C2C=CC(=[N+](CC)Cc3cccc(S(=O)(=O)[O-])c3)C=C2)c2ccccc2S(=O)(=O)[O-])cc1.[Na+].[Na+] [FD & C Blue 1] | main blue. Worms | viable if carefully |  | 
3 | O=C1/C(=C2\Nc3ccc(S(=O)(=O)[O-])cc3C2=O)Nc2ccc(S(=O)(=O)[O-])cc21.[Na+].[Na+] [FD & C Blue 2] | No colorization. Worms | remain viable | 2 mg/mL | 
4 | O=C([O-])c1c(Cl)c(Cl)c(Cl)c(Cl)c1-c1c2cc(Br)c(=O)c(Br)c-2oc2c(Br)c([O-])c(Br)cc12.[Na+].[Na+] [D & C Red 28] | Worms become pinkish | mg. Increased mortality |  | Concentration range in which worms become colored (live bait worms [1]; [4]): tration between 50-800 mg
5 | COc1cc(S(=O)(=O)[O-])c(C)cc1N=Nc1c(O)ccc2cc(S(=O)(=O)[O-])ccc12.[Na+].[Na+] [FD & C Red 40] | No coloration. Worms | remain viable | 22 mg/mL | 
6 | O=S(=O)([O-])c1ccc(N=Nc2c(O)ccc3cc(S(=O)(=O)[O-])ccc23)cc1.[Na+].[Na+] [FD & C Yellow 6] | No coloration. Worms | remain viable |  | 
7 | O=C1OC2(c3ccc([O-])cc3Oc3cc([O-])ccc32)c2ccccc21.[Na+].[Na+] [D & C Yellow 8, uranine] | main bright Chartreuse | very healthy and viable |  | Amount at which dye remains non-toxic to worms (live bait worms [1]; bait cup containing 12 worms): about 2500 mg/8 ounce bait cup; Amount at which dye remains non-toxic, per worm (live bait worms [1]; from 2500 mg/8 ounce cup with 12 worms): about 150 mg dye per worm; Concentration at which worms remain very healthy and viable (live bait worms [1]; [4]): centration of >2500 mg.; Lowest concentration at which worms become and remain colored (live bait worms [1]; [4]): ≤ 25 mg. Preferred range; Effectiveness as worm coloring agent (coloration of worms) (live bait worms [1]; [5]): intense fluorescent chartreuse color; Worm viability / mortality (live bait worms [1]; [5]): non-toxic to worms; also recorded: not detrimental to the viability of the worms; Time worms remain viable and colored in bait cup (live bait worms [3]): about four to six
